In PubChem BioAssay (NCI):
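Interpolation was linear, between the two tested concentrations surrounding the appropriate level; five concentrations were tested over 48 hours in 96-well plates. GI50 is the concentration that inhibits growth by half. TGI: concentration producing complete growth inhibition.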

Columns and labels:
Assay in all cases: growth of human tumour cells (NCI), 48 h
786-0 renal = tested on: 786-0 renal
A498 renal = tested on: A498 renal
A549 NSCLC = tested on: A549 NSCLC
ACHN renal = tested on: ACHN renal
BT-549 breast = tested on: BT-549 breast
CAKI-1 renal = tested on: CAKI-1 renal
CCRF-CEM leukemia = tested on: CCRF-CEM leukemia
COLO 205 colon = tested on: COLO 205 colon
DU-145 prostate = tested on: DU-145 prostate
EKVX NSCLC = tested on: EKVX NSCLC
HCC-2998 colon = tested on: HCC-2998 colon
HCT-116 colon = tested on: HCT-116 colon
HCT-15 colon = tested on: HCT-15 colon
HL-60(TB) leukemia = tested on: HL-60(TB) leukemia
HOP-62 NSCLC = tested on: HOP-62 NSCLC
HOP-92 NSCLC = tested on: HOP-92 NSCLC
HS 578T breast = tested on: HS 578T breast
IGROV1 ovarian = tested on: IGROV1 ovarian
K-562 leukemia = tested on: K-562 leukemia
KM12 colon = tested on: KM12 colon
LOX IMVI melanoma = tested on: LOX IMVI melanoma
M14 melanoma = tested on: M14 melanoma
MALME-3M melanoma = tested on: MALME-3M melanoma
MCF7 breast = tested on: MCF7 breast
MDA-MB-231 breast = tested on: MDA-MB-231 breast
MDA-MB-435 = tested on: MDA-MB-435
NCI-H226 lung = tested on: NCI-H226 lung
NCI-H23 lung = tested on: NCI-H23 lung
NCI-H460 lung = tested on: NCI-H460 lung
NCI-H522 lung = tested on: NCI-H522 lung
NCI/ADR-RES ovarian = tested on: NCI/ADR-RES ovarian
OVCAR-3 ovarian = tested on: OVCAR-3 ovarian
OVCAR-5 ovarian = tested on: OVCAR-5 ovarian
OVCAR-8 ovarian = tested on: OVCAR-8 ovarian
PC-3 prostate = tested on: PC-3 prostate
RPMI-8226 leukemia = tested on: RPMI-8226 leukemia
RXF 393 renal = tested on: RXF 393 renal
SF-268 CNS = tested on: SF-268 CNS
SF-295 CNS = tested on: SF-295 CNS
SF-539 CNS = tested on: SF-539 CNS
SK-MEL-2 melanoma = tested on: SK-MEL-2 melanoma
SK-MEL-5 melanoma = tested on: SK-MEL-5 melanoma
SK-OV-3 ovarian = tested on: SK-OV-3 ovarian
SN12C renal = tested on: SN12C renal
SNB-19 CNS = tested on: SNB-19 CNS
SW-620 colon = tested on: SW-620 colon
T-47D breast = tested on: T-47D breast
TK-10 renal = tested on: TK-10 renal
U251 CNS = tested on: U251 CNS
UACC-257 melanoma = tested on: UACC-257 melanoma
UACC-62 melanoma = tested on: UACC-62 melanoma
UO-31 renal = tested on: UO-31 renal

O=C(OC(CNc1c(C(=O)c2ccccc2)c(=O)n(Cc2ccccc2)c(=O)n1Cc1ccccc1)CN1CCOCC1)c1ccccc1 (centres undefined)
GI50 (786-0 renal): 70.4 µM
TGI (786-0 renal): > 100 µM
GI50 (A498 renal): 37.4 µM
TGI (A498 renal): > 100 µM
GI50 (A549 NSCLC): 49.3 µM
TGI (A549 NSCLC): > 100 µM
GI50 (ACHN renal): 46.8 µM
TGI (ACHN renal): > 100 µM
GI50 (BT-549 breast): 41.3 µM
TGI (BT-549 breast): > 100 µM
GI50 (CAKI-1 renal): 34.7 µM
TGI (CAKI-1 renal): > 100 µM
GI50 (CCRF-CEM leukemia): 33.9 µM
TGI (CCRF-CEM leukemia): > 100 µM
GI50 (COLO 205 colon): 46.3 µM
TGI (COLO 205 colon): > 100 µM
GI50 (DU-145 prostate): > 100 µM
TGI (DU-145 prostate): > 100 µM
GI50 (EKVX NSCLC): 52.9 µM
TGI (EKVX NSCLC): > 100 µM
GI50 (HCC-2998 colon): 47.4 µM
TGI (HCC-2998 colon): > 100 µM
GI50 (HCT-116 colon): 41.1 µM
TGI (HCT-116 colon): > 100 µM
GI50 (HCT-15 colon): 38.5 µM
TGI (HCT-15 colon): > 100 µM
GI50 (HL-60(TB) leukemia): 30.9 µM
TGI (HL-60(TB) leukemia): > 100 µM
GI50 (HOP-62 NSCLC): 55.5 µM
TGI (HOP-62 NSCLC): > 100 µM
GI50 (HOP-92 NSCLC): 29.6 µM
TGI (HOP-92 NSCLC): > 100 µM
GI50 (HS 578T breast): 40.2 µM
TGI (HS 578T breast): > 100 µM
GI50 (IGROV1 ovarian): 65.2 µM
TGI (IGROV1 ovarian): > 100 µM
GI50 (K-562 leukemia): 32.3 µM
TGI (K-562 leukemia): > 100 µM
GI50 (KM12 colon): 42.1 µM
TGI (KM12 colon): > 100 µM
GI50 (LOX IMVI melanoma): 59 µM
TGI (LOX IMVI melanoma): > 100 µM
GI50 (M14 melanoma): 38.4 µM
TGI (M14 melanoma): > 100 µM
GI50 (MALME-3M melanoma): > 100 µM
TGI (MALME-3M melanoma): > 100 µM
GI50 (MCF7 breast): 48.1 µM
TGI (MCF7 breast): > 100 µM
GI50 (MDA-MB-231 breast): 42.8 µM
TGI (MDA-MB-231 breast): > 100 µM
GI50 (MDA-MB-435): 86.7 µM
TGI (MDA-MB-435): > 100 µM
GI50 (NCI-H226 lung): 49.9 µM
TGI (NCI-H226 lung): > 100 µM
GI50 (NCI-H23 lung): 43.2 µM
TGI (NCI-H23 lung): > 100 µM
GI50 (NCI-H460 lung): 46.2 µM
TGI (NCI-H460 lung): > 100 µM
GI50 (NCI-H522 lung): 47.2 µM
TGI (NCI-H522 lung): > 100 µM
GI50 (NCI/ADR-RES ovarian): 47.7 µM
TGI (NCI/ADR-RES ovarian): > 100 µM
GI50 (OVCAR-3 ovarian): 34.1 µM
TGI (OVCAR-3 ovarian): > 100 µM
GI50 (OVCAR-5 ovarian): > 100 µM
TGI (OVCAR-5 ovarian): > 100 µM
GI50 (OVCAR-8 ovarian): 64.7 µM
TGI (OVCAR-8 ovarian): > 100 µM
GI50 (PC-3 prostate): 38.6 µM
TGI (PC-3 prostate): > 100 µM
GI50 (RPMI-8226 leukemia): 26.8 µM
TGI (RPMI-8226 leukemia): 82.8 µM
GI50 (RXF 393 renal): 34.7 µM
TGI (RXF 393 renal): > 100 µM
GI50 (SF-268 CNS): > 100 µM
TGI (SF-268 CNS): > 100 µM
GI50 (SF-295 CNS): 41.6 µM
TGI (SF-295 CNS): > 100 µM
GI50 (SF-539 CNS): 91.8 µM
TGI (SF-539 CNS): > 100 µM
GI50 (SK-MEL-2 melanoma): 56.7 µM
TGI (SK-MEL-2 melanoma): > 100 µM
GI50 (SK-MEL-5 melanoma): 37.7 µM
TGI (SK-MEL-5 melanoma): > 100 µM
GI50 (SK-OV-3 ovarian): > 100 µM
TGI (SK-OV-3 ovarian): > 100 µM
GI50 (SN12C renal): 50.7 µM
TGI (SN12C renal): > 100 µM
GI50 (SNB-19 CNS): 71.3 µM
TGI (SNB-19 CNS): > 100 µM
GI50 (SW-620 colon): 76.4 µM
TGI (SW-620 colon): > 100 µM
GI50 (T-47D breast): > 100 µM
TGI (T-47D breast): > 100 µM
GI50 (TK-10 renal): 69 µM
TGI (TK-10 renal): > 100 µM
GI50 (U251 CNS): 42.3 µM
TGI (U251 CNS): > 100 µM
GI50 (UACC-257 melanoma): 76.8 µM
TGI (UACC-257 melanoma): > 100 µM
GI50 (UACC-62 melanoma): 38.8 µM
TGI (UACC-62 melanoma): > 100 µM
GI50 (UO-31 renal): 52.8 µM
TGI (UO-31 renal): > 100 µM
